The subject of one series is cleaved caspase 3. Put plainly: Cleaved caspase 3 immunohistochemistry in KPC tumors. The format is in vivo, KPC mice. The following applies: 25 mg/kg by gavage (PO) for 14 days. The text has this: To arrive at markers driven by metarrestin exposure, we next subjected untreated and metarrestin-treated KPC tumors and matched normal pancreata to unbiased gene expression profiling using RNA-sEq. […] Thus, FOXA1 and FOXO6 may provide leads for future predictive biomarker development, assist in determination of the minimally efficacious dose, and add additional insight into the mechanism of action of metarrestin.
Suppl. Fig. 7. […] Nuclear cleaved caspase 3 expression levels in metarrestin-treated KPC tumors. Representative images of cleaved caspase 3 immunohistochemistry in tumors of KPC mice treated with vehicle (top) or 25mg/kg metarrestin for 14 days (bottom). Images 20×, inset 40×.

In another series the test system is FOXA1 mRNA. Put plainly: FOXA1 mRNA expression in KPC tumors (RNA-seq, qRT-PCR). It is filed as in vivo, KPC mice. Conditions: vs intratumor exposure. The procedure:
Pancreas cancer tissues samples or adjacent, uninvolved normal pancreas from vehicle or metarrestin-treated KPC animals collected at 0, 3, and 9 h after last dose of 25 mg/kg metarrestin were homogenized in PureLink Lysis Buffer (PureLink RNA Mini Kit, ThermoFisher Scientific Waltham, MA) at 4 °C using a TissueLyser II bead mill (Qiagen, Valencia, CA, manufactured by Retsch, Newtown, PA). Total RNA was isolated using the Life Technologies PureLink® RNA Mini Kit, quantified on a NanoDrop 1000 spectrophotometer (ThermoFisher Scientific, Waltham, MA). […]
Total RNA libraries were prepared using the Illumina TruSeq® Stranded Total RNA LT (with Ribo-Zero™Human/Mouse/Rat) kit according the manufacturer’s instructions. […] Sequencing output ranged from 89 to 132 million reads per sample. Adapter trimming and base filtering was done using Trimmomatic software version 0.3, and the trimmed reads were aligned to mouse reference genome (GRCm38/mm10) and Ensembl annotation (version 70) using TopHat2 version 2.0.8.
A total of 450 ng of total RNA was used for single-strand complementary DNA synthesis using a SuperScript III First-Strand kit (Invitrogen, Carlsbad, CA). […] Reaction products were read in a Bio-Rad CFX96 Touch real-time PCR detection system (Bio-Rad Laboratories, Hercules, CA). […]
(In general: In qPCR the cycle at which signal appears reflects the starting amount.)

Regarding `N=c1c2c(-c3ccccc3)c(-c3ccccc3)n(Cc3ccccc3)c2ncn1[C@H]1CC[C@H](O)CC1` [metarrestin, Trans-4-(7-benzyl-4-imino-5,6-diphenyl-4,7-dihydro-3H-pyrrolo[2,3-d]pyrimidin-3-yl) cyclohexanol], the “cell death in KPC tumors (nuclear cleaved caspase 3)” value in the series with cleaved caspase 3 is reported as “does not induce cell death”. The “FOXA1 mRNA expression in KPC tumors” value in the series with FOXA1 mRNA is recorded as “Dose-dependent normalization”.

For the origin of these results see PMC6267684, “Pharmacokinetic evaluation of the PNC disassembler metarrestin in wild-type and Pdx1-Cre;LSL-Kras^G12D/+;Tp53^R172H/+ (KPC) mice, a genetically engineered model of pancreatic cancer” (Cancer Chemotherapy and Pharmacology, 2018).
